This note sets out measurements from US20220289657A1, “COMPOSITION FOR PREVENTING OR TREATING BACTERIAL INFECTIOUS DISEASE COMPRISING 4-GINGEROL DERIVATIVE COMPOUND AS ACTIVE INGREDIENT” (KOREA UNIVERSITY RESEARCH AND BUSINESS FOUNDATION, SEJONG …, priority 2019, published 2022).

Marks after values point to notes of the source that are not given here.

The target of this assay is T1, RhlR (Pseudomonas aeruginosa, UniProt P54292).
T1 construct: expressed in transfected cells; host or cells: E. coli sdiA variant co-transformed with pJN105R and pSC11 (RhlA::lacZ)
T1 sequence (P54292 whole entry): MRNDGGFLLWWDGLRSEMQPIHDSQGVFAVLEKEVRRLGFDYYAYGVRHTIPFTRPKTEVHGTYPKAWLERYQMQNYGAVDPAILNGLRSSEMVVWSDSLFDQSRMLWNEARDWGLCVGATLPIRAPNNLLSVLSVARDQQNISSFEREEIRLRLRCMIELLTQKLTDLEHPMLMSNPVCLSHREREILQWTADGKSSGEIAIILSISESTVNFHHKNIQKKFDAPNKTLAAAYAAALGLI
Nature of the assay: cell-based. To be noted: footnotes not given; for activity at 100 µM: read-out: Relative RhlR activity Agonism, Table 2, matches the 100 column of Table 3; for remaining activity at 100 µM: read-out: Relative RhlR activity Antagonism, Table 2; for remaining activity at 100 µM / Relative RhlR activity Antagonism: 100 μM per Table 3, lower = stronger antagonism; for Relative RhlR activity Antagonism: Table 2. The method, then:
Escherichia coli (E. coli) DH5a includes LuxR homolog SdiA detecting endogenous AHL synthesized by other microbial species, particularly, BHL.
For RhlR reporter strain analysis, the present invention used pJN105R (RhlR expression plasmid), anspSC11 (RhlA::lacZ fusion plasmid) and an sdiA variant co-transformed with the two plasmids. 1% of an overnight-cultured reporter strain (OD 595 nm=1.0) supplemented with 10 μg/mL gentamicin and 50 μg/mL ampicillin was cultured in a Luria-Bertani (LB) medium (Difco, Detroit, Mich., USA) with a positive control or a compound (0-1000 μM) and BHL (0-10 μM) (Sigma-Aldrich) at 37° C. for 2 hours. 0.4% arabinose (Sigma-Aldrich) was reacted with the resulting product at 37° C. for 1.5 hours. β-galactosidase activity was evaluated using a Tropix plus kit (Applied Biosystems, CA, USA), and OD 595 nm and luminescence were measured using a VICTOR x5 multimode plate reader (PerkinElmer, Waltham, Mass., USA). Relative RhlR activity was quantified by measuring luminescence at OD 595 nm. In addition, for LasR reporter strain analysis, the present invention used pJN105L (LasR expression plasmid) and pSC11 (lasI::lacZ fusion plasmid), E. coli DH5a co-transformed with the two plasmids, and OdDHL (Sigma-Aldrich).

In the case of `CCCCC(O)C#Cc1ccc(F)c(F)c1` (racemic) [Compound 34a, 1-(3,4-Difluorophenyl)hept-1-yn-3-ol], the activity at 100 µM turned out to be 4% and the remaining activity at 100 µM came out at 71%.

Take `CCCCCC(O)C#Cc1ccc(F)c(F)c1` (racemic) [Compound 35a, 1-(3,4-Difluorophenyl)oct-1-yn-3-ol]: the activity at 100 µM was found to be 3% and the remaining activity at 100 µM is 74%.

As to `CCCC(O)CC(=O)CCc1ccc(O)c(OC)c1` (stereo not shown) [Compound 2, 5-Hydroxy-1-(4-hydroxy-3-methoxyphenyl)octan-3-one], the “Relative RhlR activity Antagonism” value is reported as 54** %, the activity at 100 µM turned out to be 3% and the remaining activity at 100 µM was determined as 54%.

As for `CCCCC(O)CC(=O)CCc1ccc(O)c(OC)c1` (stereo not shown) [Compound 3, 5-Hydroxy-1-(4-hydroxy-3-methoxyphenyl)nonan-3-one], the activity at 100 µM is 2% and the remaining activity at 100 µM worked out at 62%.

Regarding `CCCCCCC(O)CC(=O)CCc1ccc(O)c(OC)c1` (stereo not shown) [Compound 5, 5-Hydroxy-1-(4-hydroxy-3-methoxyphenyl)undecan-3-one], the activity at 100 µM came to 3% and the remaining activity at 100 µM is 83%.

For the compound `CCCCCCCC(O)CC(=O)CCc1ccc(O)c(OC)c1` (stereo not shown) [Compound 6, 5-Hydroxy-1-(4-hydroxy-3-methoxyphenyl)dodecan-3-one], the activity at 100 µM came out at 2% and the remaining activity at 100 µM turned out to be 90%.

For the compound `CCCC(O)CC(=O)/C=C/c1ccccc1` (stereo not shown) [Compound 11b, (E)-5-Hydroxy-1-phenyloct-1-en-3-one], the “Relative RhlR activity Antagonism” value is 93* %, the activity at 100 µM was found to be 4% and the remaining activity at 100 µM was 93%.

As for `CCCC(O)CC(=O)/C=C/c1cccc(O)c1` (stereo not shown) [Compound 11e, (E)-5-Hydroxy-1-(3-hydroxyphenyl)oct-1-en-3-one], the “Relative RhlR activity Antagonism” value is 78** %, the activity at 100 µM worked out at 2% and the remaining activity at 100 µM turned out to be 78%.

As to `CCCC(O)CC(=O)/C=C/c1ccc(F)cc1` (stereo not shown) [Compound 11g, (E)-1-(4-Fluorophenyl)-5-hydroxyoct-1-en-3-one], the “Relative RhlR activity Antagonism” value was 33** %, the activity at 100 µM worked out at 1% and the remaining activity at 100 µM stood at 33%.

In the case of `CCCC(O)CC(=O)/C=C/c1ccc(Cl)cc1` (stereo not shown) [Compound 11h, (E)-1-(4-Chlorophenyl)-5-hydroxyoct-1-en-3-one], the “Relative RhlR activity Antagonism” value is reported as 64** %, the activity at 100 µM was 1% and the remaining activity at 100 µM was determined as 64%.

For the compound `CCCC(O)CC(=O)/C=C/c1ccccc1C` (stereo not shown) [Compound 11i, (E)-5-Hydroxy-1-(o-tolyl)oct-1-en-3-one], the “Relative RhlR activity Antagonism” value is recorded as 65** %, the activity at 100 µM was determined as 2% and the remaining activity at 100 µM stood at 65%.

`CCCC(O)CC(=O)/C=C/c1ccc(N(C)C)cc1` (stereo not shown) [Compound 11j, (E)-1-(4-(Dimethylamino)phenyl)-5-hydroxyoct-1-en-3-one]: the “Relative RhlR activity Antagonism” value is on record as 53** %, the activity at 100 µM was 2% and the remaining activity at 100 µM came out at 53%.

With `CCCC(O)CC(=O)/C=C/c1ccc(OC)c(OC)c1` (stereo not shown) [Compound 11l, (E)-1-(3,4-Dimethoxyphenyl)-5-hydroxyoct-1-en-3-one], the activity at 100 µM came out at 1% and the remaining activity at 100 µM turned out to be 69%.

In the case of `CCCC(O)CC(=O)/C=C/c1ccc(O)c(F)c1` (stereo not shown) [Compound 11m, (E)-1-(3-Fluoro-4-hydroxyphenyl)-5-hydroxyoct-1-en-3-one], the activity at 100 µM came to 2% and the remaining activity at 100 µM is 60%.

Consider `CCCC(O)CC(=O)/C=C/c1ccc(O)c(OCC)c1` (stereo not shown) [Compound 11n, (E)-1-(3-Ethoxy-4-hydroxyphenyl)-5-hydroxyoct-1-en-3-one], for which the activity at 100 µM is 1% and the remaining activity at 100 µM came out at 91%.

In the case of `CCCC(O)CC(=O)/C=C/c1ccc(C)c(C)c1` (stereo not shown) [Compound 11p, (E)-1-(3,4-Dimethylphenyl)-5-hydroxyoct-1-en-3-one], the “Relative RhlR activity Antagonism” value is 72** %, the activity at 100 µM worked out at 2% and the remaining activity at 100 µM came to 72%.

With `CCCC(O)CC(=O)/C=C/c1ccc(F)c(OC)c1` (stereo not shown) [Compound 11q, (E)-1-(4-Fluoro-3-methoxyphenyl)-5-hydroxyoct-1-en-3-one], the “Relative RhlR activity Antagonism” value was 43** %, the activity at 100 µM is 1% and the remaining activity at 100 µM amounted to 43%.

For the compound `CCCC(O)CC(=O)/C=C/c1cc(F)cc(OC)c1` (stereo not shown) [Compound 11r, (E)-1-(3-Fluoro-5-methoxyphenyl)-5-hydroxyoct-1-en-3-one], the “Relative RhlR activity Antagonism” value was 74** %, the activity at 100 µM is 3% and the remaining activity at 100 µM was determined as 74%.

Consider `CCCC(O)CC(=O)CCc1ccccc1` (stereo not shown) [Compound 12b, 5-Hydroxy-1-phenyloctan-3-one], for which the activity at 100 µM worked out at 4% and the remaining activity at 100 µM is 88%.

Consider `CCCC(O)CC(=O)CCc1cccc(OC)c1` (stereo not shown) [Compound 12c, 5-Hydroxy-1-(3-methoxyphenyl)octan-3-one], for which the activity at 100 µM was determined as 2% and the remaining activity at 100 µM was 90%.

Regarding `CCCC(O)CC(=O)CCc1ccc(O)cc1` (stereo not shown) [Compound 12d, 5-Hydroxy-1-(4-hydroxyphenyl)octan-3-one], the activity at 100 µM is 3% and the remaining activity at 100 µM amounted to 64%.

As for `CCCC(O)CC(=O)CCc1cccc(O)c1` (stereo not shown) [Compound 12e, 5-Hydroxy-1-(3-hydroxyphenyl)octan-3-one], the activity at 100 µM is 2% and the remaining activity at 100 µM amounted to 81%.

For `CCCC(O)CC(=O)CCc1ccc(OC)cc1` (stereo not shown) [Compound 12f, 5-Hydroxy-1-(4-methoxyphenyl)octan-3-one], the activity at 100 µM came out at 2% and the remaining activity at 100 µM worked out at 71%.

Turning to `CCCC(O)CC(=O)CCc1ccc(F)cc1` (stereo not shown) [Compound 12g, 1-(4-Fluorophenyl)-5-hydroxyoctan-3-one], the activity at 100 µM came to 2% and the remaining activity at 100 µM worked out at 51%.

`CCCC(O)CC(=O)CCc1ccc(Cl)cc1` (stereo not shown) [Compound 12h, 1-(4-Chlorophenyl)-5-hydroxyoctan-3-one]: the activity at 100 µM worked out at 2% and the remaining activity at 100 µM was 69%.

In the case of `CCCC(O)CC(=O)CCc1ccc(C)cc1` (stereo not shown) [Compound 12i, 5-Hydroxy-1-(p-tolyl)octan-3-one], the activity at 100 µM turned out to be 1% and the remaining activity at 100 µM was found to be 76%.

In the case of `CCCC(O)CC(=O)CCc1ccc(N(C)C)cc1` (stereo not shown) [Compound 12j, 1-(4-(Dimethylamino)phenyl)-5-hydroxyoctan-3-one], the activity at 100 µM amounted to 1% and the remaining activity at 100 µM amounted to 74%.

For the compound `CCCC(O)CC(=O)CCc1ccc(O)c(O)c1` (stereo not shown) [Compound 12k, 1-(3,4-Dihydroxyphenyl)-5-hydroxyoctan-3-one], the activity at 100 µM was determined as 2% and the remaining activity at 100 µM was determined as 47%.

As for `CCCC(O)CC(=O)CCc1ccc(OC)c(OC)c1` (stereo not shown) [Compound 12l, 1-(3,4-Dimethoxyphenyl)-5-hydroxyoctan-3-one], the activity at 100 µM turned out to be 1% and the remaining activity at 100 µM amounted to 94%.

As to `CCCC(O)CC(=O)CCc1ccc(O)c(F)c1` (stereo not shown) [Compound 12m, 1-(3-Fluoro-4-hydroxyphenyl)-5-hydroxyoctan-3-one], the activity at 100 µM is 1% and the remaining activity at 100 µM is 73%.

In the case of `CCCC(O)CC(=O)CCc1ccc(O)c(OCC)c1` (stereo not shown) [Compound 12n, 1-(3-Ethoxy-4-hydroxyphenyl)-5-hydroxyoctan-3-one], the activity at 100 µM was 1% and the remaining activity at 100 µM was 98%.

On to `CCCC(O)CC(=O)CCc1ccc(F)c(F)c1` (stereo not shown) [Compound 12o, 1-(3,4-Difluorophenyl)-5-hydroxyoctan-3-one], for which the activity at 100 µM is 1% and the remaining activity at 100 µM was 49%.

As to `CCCC(O)CC(=O)CCc1ccc(C)c(C)c1` (stereo not shown) [Compound 12p, 1-(3,4-Dimethylphenyl)-5-hydroxyoctan-3-one], the activity at 100 µM worked out at 3% and the remaining activity at 100 µM worked out at 82%.

As for `CCCC(O)CC(=O)CCc1ccc(F)c(OC)c1` (stereo not shown) [Compound 12q, 1-(4-Fluoro-3-methoxyphenyl)-5-hydroxyoctan-3-one], the activity at 100 µM is 1% and the remaining activity at 100 µM stood at 79%.

For `CCCC(O)CC(=O)CCc1cc(F)cc(OC)c1` (stereo not shown) [Compound 12r, 1-(3-Fluoro-5-methoxyphenyl)-5-hydroxyoctan-3-one], the activity at 100 µM worked out at 3% and the remaining activity at 100 µM is 85%.

As for `CCCCCC(=O)/C=C/c1ccc(O)c(OC)c1` [Compound 13b, (E)-1-(4-Hydroxy-3-methoxyphenyl)oct-1-en-3-one], the “Relative RhlR activity Antagonism” value is given as 41** %, the activity at 100 µM was found to be 2% and the remaining activity at 100 µM came to 41%.

Turning to `CCCCCC(=O)CCc1ccc(F)c(F)c1` [Compound 14a, 1-(3,4-Difluorophenyl)octan-3-one], the activity at 100 µM was found to be 4% and the remaining activity at 100 µM is 55%.
